Assay [1] addresses SCD1 (Rattus norvegicus (Rat), UniProt P07308). The assay can be described thus: SCD1 enzymatic assay in rat liver microsomes (RLM). The assay is classed as biochemical. The following applies: rat liver microsomes; for inhibition at 1 µM / % Inh.@ 1 μM: 1 μM test compound; for inhibition at 1 µM: read-out: % Inh.@ 1 μM. As for the experimental part: Step 1: Preparation of Rat Liver Microsome (RLM):
Sprague Dawley rats from Charles River (200-225 g) underwent 2-cycle of fast-re-feeding (24-hour fast followed by 24-hour feeding with fat-free high carbohydrate diet, Reseach Diet, D00042802). The livers were removed and homogenized 1:4 (w/v) with pre-chilled, homogenizing buffer (10 mM Tris-HCl, 0.25 M sucrose, 1 mM EDTA, pH 7.4, supplemented with protease inhibitor cocktail). The homogenate was spun at 12,000×g for 15 min at 4° C. The supernatant was then re-centrifuged at 100,000×g for 60 min at 4° C. The pellet was re-suspended in 2 ml pre-chilled […] potassium phosphate buffer, pH 7.2, 10 mM EDTA at a concentration of 20 mg/ml. The resulting rat liver microsome (RLM) preparation was stored at −80° C.
Step 2: SCD1 Enzymatic Assay in RLM:
The SCD1 enzymatic assay was done in a volume of 50 μL using 10 μg of RLM (prepared as described above) in a 96-well polypropylene plate (enzyme reaction buffer contains 0.1 M K-Phosphate Buffer, 10 mM ATP, 6 mM MgCl2. 1 mM CoA, 1 mM β-NADH, 1.6 mM L-glutathione, 20 μM Stearoyl-CoA). Stearoyl-[9,10-^3H]-CoA (ARC-0390, 1 mCi/mL, 60 Ci/mmol,) was added at a final concentration of 2 μCi/mL. Test compound was then added to the reaction mixture at the selected concentration. After incubation at room temperature for 2 hours, 5 μL 1 N HCl was added to stop the reaction, followed by addition of 25 μL of 10% charcoal. The reaction mixture was then transferred to 96-well Multiscreen plate (Millipore, Cat#MSFCN6B50). […] The measured cpm values were fitted with Sigmoidal dose-response curve fit with Graphpad Prism.
A general note: Liver microsomes are vesicles of endoplasmic reticulum, rich in cytochrome P450 enzymes.

Assay [2] concerns the target SCD1 (Homo sapiens (Human), UniProt O00767). The assay can be described thus: SCD1 13C-palmitic acid assay in A431 cells. The following applies: read-out: A431 cells 13C-PA IC50. The assay is classed as cell-based. As to the method:
Human epithelial carcinoma A431 cells were seeded at 100,000 cells/well in complete growth medium (DMEM, Cellgro#10-013-CM, 4.5 g/L glucose, 10% FBS) in the presence of 0.05 mg/mL human insulin (Hannas Pharmaceutical Supply Co Inc, Humanlin 100 U/ml, 4 mg/ml) in 96-well tissue culture plate. 24 hr later, the cells were washed extensively with Assay Buffer (DMEM, Cellgro#10-013-CM, 4.5 g/L glucose, supplemented with 0.05 mg/mL Human Insulin and 0.1% Fatty Acid Free BSA). […] The cells were then returned to the tissue culture incubator (37° C. and 5% CO2) for 4 hrs. At the end of incubation, the cells were washed three times with 200 μL/well Hanks buffer (HBSS) and then stored at −20° C. until extraction.
For fatty acid extraction, after thawing out the plates, 40 μL of 1N KOH (containing 5 μM of internal standard 7,7,8,8-D4 palmitate) was added to each well and cell plates were incubated at 37° C. for 30 minutes. […] Acetonitrile (100 μL) was then added to extract fatty acids, followed by centrifugation at 3000 rpm for 10 minutes. 75 μL of extract was then transferred to a new glass vial in a 96-well cluster plate. 5 μL was injected for LC/MS analysis for detection of ^13C-palmitic acid and ^13C-palmitoleic acid. Formation of product ^13C-palmitoleic acid was determined as an index of SCD1 activity.
LC/MS analysis was performed as following. An Agilent 1100 Liquid Chromatographic System (Palo Alto, Calif.) consisting of a binary pump, a degasser and an autosampler was used. Separation of free fatty acids was performed on a Zorbax SB-C8 column (2.1×50 mm, particle size=3.5 μm). An isocratic elution was carried out with 10 mM triethylamine acetate in water: acetonitrile (3:7) at a flow rate of 0.3 mL/min. The column temperature was set at 30° C. and the sample injection volume was 5 μL. The LC run cycle was 4 min. A Micromass triple-quadrupole Quattro Micro mass […] (Waters, Beverly, Mass.) was interfaced with the LC system through a Z-spray electrospray ion source and was operated in the negative ion mode. Nitrogen was used as nebulizing gas, desolvation gas and cone curtain gas and argon was chosen as collision gas. The triple quadrupole MS source parameters were set as follows: capillary voltage, 3200V; cone voltage, 25V; exctractor 2V; source temperature, 120° C.; desolvation temperature, 300° C.; cone gas flow, 50 L/h; and desolvation gas flow, 700 L/h. […] MassLynx software version 4.0 was used for system control and data processing. The signal of U-^13C-palmitoleic acid was normalized to an internal standard.

Where “and” joins values, the source holds several entries; their conditions need not be identical. Equal entries are not always repeated.

SCD1 (Homo sapiens (Human), UniProt O00767), sequence (O00767 whole entry): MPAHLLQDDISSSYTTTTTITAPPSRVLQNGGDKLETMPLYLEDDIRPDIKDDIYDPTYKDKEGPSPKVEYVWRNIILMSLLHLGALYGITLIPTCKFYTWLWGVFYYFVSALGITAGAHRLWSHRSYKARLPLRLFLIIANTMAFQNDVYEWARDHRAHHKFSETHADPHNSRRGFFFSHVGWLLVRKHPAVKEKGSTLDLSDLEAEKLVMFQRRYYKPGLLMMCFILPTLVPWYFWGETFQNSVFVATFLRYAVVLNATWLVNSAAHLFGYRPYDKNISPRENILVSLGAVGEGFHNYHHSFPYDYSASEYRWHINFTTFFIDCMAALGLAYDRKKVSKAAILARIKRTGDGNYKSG
SCD1 (Rattus norvegicus (Rat), UniProt P07308), sequence (P07308 whole entry): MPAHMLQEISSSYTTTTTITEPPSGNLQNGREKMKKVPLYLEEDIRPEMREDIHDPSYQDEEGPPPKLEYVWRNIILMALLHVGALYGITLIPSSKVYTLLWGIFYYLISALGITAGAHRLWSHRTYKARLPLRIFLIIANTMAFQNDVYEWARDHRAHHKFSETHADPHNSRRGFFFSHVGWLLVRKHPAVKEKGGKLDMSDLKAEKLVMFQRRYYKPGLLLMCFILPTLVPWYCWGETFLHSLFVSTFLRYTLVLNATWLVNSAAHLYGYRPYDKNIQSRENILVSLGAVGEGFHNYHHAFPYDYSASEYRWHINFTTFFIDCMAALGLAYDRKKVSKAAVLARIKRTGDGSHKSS

`OCCc1cnn(-c2ccc(N3CCC(N4CCc5ccc(F)cc54)CC3)nn2)c1` [Compound #43, 2-(1-(6-(4-(6-fluoroindolin-1-yl)piperidin-1-yl)pyridazin-3-yl)-1H-pyrazol-4-yl)ethanol]: in assay [1], the inhibition at 1 µM came out at 90% and 20 nM corresponded to half-maximal inhibition (IC50). Further, the IC50 (as a rule, the point on the concentration scale where inhibition reaches its midpoint) in assay [2] was 11 nM.
`CN(C)c1ccc(-c2ccc(N3CCC(N4CCc5ccc(F)cc54)CC3)nn2)cn1` [Compound #44, 5-(6-(4-(6-fluoroindolin-1-yl)piperidin-1-yl)pyridazin-3-yl)-N,N-dimethylpyridin-2-amine]: in assay [1], the “% Inh.@ 1 μM” value is 97%; the inhibition at 1 µM turned out to be 92%; the IC50 is 20 nM and 14 nM. Further, the IC50 in assay [2] was 32 nM and 28 nM.
`Cn1cc(-c2ccc(N3CCC(N4CCc5cc(F)ccc54)CC3)nn2)cn1` [Compound #46, 5-fluoro-1-(1-(6-(1-methyl-1H-pyrazol-4-yl)pyridazin-3-yl)piperidin-4-yl)indoline]: the inhibition at 1 µM in assay [1] was 85%. Besides, the IC50 came out at 165 nM in assay [1] and 99 nM in assay [2].
On the same counts, the results for `OCc1ccc(-c2ccc(N3CCC(N4CCc5ccc(F)cc54)CC3)nn2)cc1` [Compound #51] are 96%, 22 nM and 8 nM.
On to `Cc1ccc(-c2ccc(N3CCC(N4CCc5ccc(F)cc54)CC3)nn2)s1` [Compound #52, 6-fluoro-1-(1-(6-(5-methylthiophen-2-yl)pyridazin-3-yl)piperidin-4-yl)indoline], for which, in assay [1], the inhibition at 1 µM was found to be 92% and the IC50 amounted to 121 nM. Besides, in assay [2], the IC50 stood at 6 nM.
On the same counts, the results for `Fc1ccc2c(c1)N(C1CCN(c3ccc(-c4ccc(C(F)(F)F)cc4)nn3)CC1)CC2` [Compound #54, 6-fluoro-1-(1-(6-(4-(trifluoromethyl)phenyl)pyridazin-3-yl)piperidin-4-yl)indoline] are 85%, 90 nM and 54 nM.
On the same counts, the results for `Cc1ccc2c(c1)N(C1CCN(c3ccc(-c4cnn(C)c4)nn3)CC1)CC2` [Compound #57, 6-methyl-1-(1-(6-(1-methyl-1H-pyrazol-4-yl)pyridazin-3-yl)piperidin-4-yl)indoline] are 72%, 286 nM and 241 nM.
Regarding `O=C(O)c1ccc(-c2ccc(N3CCC(N4CCc5ccc(F)cc54)CC3)nn2)cc1` [Compound #58, 4-(6-(4-(6-fluoroindolin-1-yl)piperidin-1-yl)pyridazin-3-yl)benzoic acid], in assay [1], the inhibition at 1 µM turned out to be 78% and the midpoint of inhibition, the IC50, lay at 349 nM. Besides, the IC50 in assay [2] worked out at 390 nM.
On the same counts, the results for `Cn1cc(-c2ccc(N3CCC(N4CCc5ccc(Cl)cc54)CC3)nn2)cn1` [Compound #59, 6-chloro-1-(1-(6-(1-methyl-1H-pyrazol-4-yl)pyridazin-3-yl)piperidin-4-yl)indoline] are 99%, 35 nM and 28 nM.
On the same counts, the results for `COc1ccc2c(c1)N(C1CCN(c3ccc(-c4cnn(C)c4)nn3)CC1)CC2` [Compound #62, 6-methoxy-1-(1-(6-(1-methyl-1H-pyrazol-4-yl)pyridazin-3-yl)piperidin-4-yl)indoline] are 79%, 317 nM and 407 nM.
On the same counts, the results for `CNC(=O)Cn1cc(-c2ccc(N3CCC(N4CCc5ccc(F)cc54)CC3)nn2)cn1` [Compound #64, 2-(4-(6-(4-(6-fluoroindolin-1-yl)piperidin-1-yl)pyridazin-3-yl)-1H-pyrazol-1-yl)-N-methylacetamide] are 102%, 15 nM and 12 nM.
Turning to `Cn1cc(-c2ccc(N3CCC(N4CCc5cc(Cl)ccc54)CC3)nn2)cn1` [Compound #65, 5-chloro-1-(1-(6-(1-methyl-1H-pyrazol-4-yl)pyridazin-3-yl)piperidin-4-yl)indoline], in assay [1], the inhibition at 1 µM is 83%. The IC50 in assay [1] came out at 181 nM; in assay [2], 218 nM.
On the same counts, the results for `CCOCc1cnn(-c2ccc(N3CCC(N4CCc5ccc(F)cc54)CC3)nn2)c1` [Compound #72, 1-(1-(6-(4-(ethoxymethyl)-1H-pyrazol-1-yl)pyridazin-3-yl)piperidin-4-yl)-6-fluoroindoline] are 99%, 8 nM and 9 nM.
As to `Fc1ccc2c(c1)N(C1CCN(c3ccc(-c4ccc(C(F)(F)F)nc4)nn3)CC1)CC2` [Compound #76, 6-fluoro-1-(1-(6-(6-(trifluoromethyl)pyridin-3-yl)pyridazin-3-yl)piperidin-4-yl)indoline], the inhibition at 1 µM in assay [1] was 97%. Moreover, the IC50 in assay [1] stood at 16 nM; in assay [2], 14 nM.
Consider `CCOCCn1cc(-c2ccc(N3CCC(N4CCc5ccc(F)cc54)CC3)nn2)cn1` [Compound #78, 1-(1-(6-(1-(2-ethoxyethyl)-1H-pyrazol-4-yl)pyridazin-3-yl)piperidin-4-yl)-6-fluoroindoline], for which the inhibition at 1 µM in assay [1] was determined as 99%. The figures for the IC50 in assay [1] and in assay [2] were 12 nM and 41 nM, respectively.
On the same counts, the results for `CCCn1cc(-c2ccc(N3CCC(N4CCc5ccc(F)cc54)CC3)nn2)cn1` [Compound #79, 6-fluoro-1-(1-(6-(1-propyl-1H-pyrazol-4-yl)pyridazin-3-yl)piperidin-4-yl)indoline] are 97%, 22 nM and 72 nM.
On the same counts, the results for `CCn1cc(-c2ccc(N3CCC(c4noc5ccc(F)cc45)CC3)nn2)cn1` [compound 13, 3-(1-(6-(1-ethyl-1H-pyrazol-4-yl)pyridazin-3-yl)piperidin-4-yl)-5-fiuorobenzo[d]isoxazole] are 98%, 70 nM and 985 nM.
As for `Cc1nnc(-c2ccc(N3CCC(c4noc5ccc(F)cc45)CC3)nn2)o1` [compound 18, 5-fluoro-3-(1-(6-(5-methyl-1,3,4-oxadiazol-2-yl)pyridazin-3-yl)piperidin-4-yl)benzo[d]isoxazole], the IC50 in assay [1] amounted to 315 nM; in assay [2], 248 nM.
In the case of `OCc1nnc(-c2ccc(N3CCC(c4noc5ccc(F)cc45)CC3)nn2)o1` [compound 20, (5-(6-(4-(5-fluorobenzo[d]isoxazol-3-yl)piperidin-1-yl)pyridazin-3-yl)-1,3,4-oxadiazol-2-yl)methanol], in assay [1], the “% Inh.@ 1 μM” value was 96, 96%; the inhibition at 1 µM was found to be 96%; the IC50 was 16 nM and 14 nM. In addition, in assay [2], the IC50 stood at 11 nM.
As for `Cc1csc(-c2ccc(N3CCC(c4noc5ccc(F)cc45)CC3)nn2)n1` [compound 23, 5-fluoro-3-(1-(6-(4-methylthiazol-2-yl)pyridazin-3-yl)piperidin-4-yl)benzo[d]isoxazoie], in assay [1], the inhibition at 1 µM is 100% and half-maximal inhibition (IC50) was put at 21 nM. Moreover, in assay [2], the IC50 amounted to 3 nM.

These data come from US9102669B2, “Substituted piperidinyl-pyridazinyl derivatives useful as SCD 1 inhibitors” (Janssen Pharmaceutica NV, priority 2011, dated 2015).
